In article PMC9305538 (Chembiochem, 2022) one finds Km data, which are given here for three molecules.

SMILES strings stand for the structures. Like-named read-outs stand apart in the source and are kept apart here.

Assay [1] relates to FDHC23S+AzoRo. The settings on record: 1 mM NAD+; 50 mM phosphate pH 7; 25 °C; apparent; FDH part.
Assay [2] concerns FDHC23S+AzoRo. The conditions noted are these: 150 μM NADH; 50 μM FMN; 50 mM phosphate pH 7; 25 °C; apparent; AzoRo part.
Assay [3] has as its system FDHC23S+AzoRo. The conditions noted are these: 150 μM NADH; 50 μM FMN; 50 mM phosphate pH 7; 25 °C; apparent; AzoRo part. This is another data set of the same source.

Broadly, the Km is the concentration of substrate that gives half-maximal velocity. As for `O=CO` [Formate], the Km in the assay on FDHC23S+AzoRo [1] was 48900 ± 4880 µM.

On to `CN(C)c1ccc(/N=N/c2ccccc2C(=O)O)cc1` [compound 1, methyl red], for which the Km with FDHC23S+AzoRo [2] amounted to 73.9 ± 47.5 µM.

As for `CC(=O)Nc1ccc(S(=O)(=O)O)c2cc(S(=O)(=O)O)c(N=Nc3ccc(N=Nc4ccc(S(=O)(=O)O)cc4)c4ccc(S(=O)(=O)O)cc34)c(O)c12` [compound 5, Brilliant Black BN], the Km with FDHC23S+AzoRo [3] amounted to 6.01 ± 1.39 µM.
